Data from the Deep4Chem optical property database.
Blank lines part the entries; values can stand above or below the molecule they belong to.

Experiment: photoluminescence quantum yield (fraction); solvent given as SMILES

photoluminescence quantum yield (in ClCCl): 0.15
Compound: CCCCCC(=O)c1ccc2c3c(sc2c1)-c1ccccc1P3(=O)c1ccccc1 (stereo unspecified)

photoluminescence quantum yield (in CN(C)C=O): 0.0205 | photoluminescence quantum yield (in ClC(Cl)Cl): 0.0225
Compound: CCCCCCOc1ccc(N(c2ccc(OCCCCCC)cc2)c2ccc(-c3sc(-c4ccc(N(c5ccc(OCCCCCC)cc5)c5ccc(OCCCCCC)cc5)cc4)c4nc(CC)c(CC)nc34)cc2)cc1

photoluminescence quantum yield (in CC#N): 0.51
Compound: CCOC(=O)c1c2c3c(cccc3c3cc4c(cc13)[Si](C)(C)O[Si]4(C)C)N(C)C2=O

photoluminescence quantum yield (in ClCCl): 0.18
Compound: Clc1ccc(N2c3sc4ccccc4c3Sc3c2sc2ccccc32)cc1

photoluminescence quantum yield (in C1CCCCC1): 0.007 | photoluminescence quantum yield (in CO): 0.002
Compound: C/C(=C\c1ccccc1)c1nc2ccccc2o1

photoluminescence quantum yield (in ClC(Cl)Cl): 0.05
Compound: c1ccc(-c2ncc3ccccn23)cc1

photoluminescence quantum yield (in ClCCl): 0.52
Compound: c1ccc(C2=C(c3ccccc3)c3cccc4c5c(cc(c34)O2)=NC2CCCCC2N=5)cc1 (stereo unspecified)

photoluminescence quantum yield (in O): 0.28
Compound: COc1ccc(C)cc1C1=C2C=CC(=[N+](C)C)C=C2[Si](C)(C)c2cc(N(C)C)ccc21

photoluminescence quantum yield (in C1CCCCC1): 0.26
Compound: COc1ccc2c3c(c4ccc(OC)cc4c2c1)C(C)(C)c1ccc2ccccc2c1-3

photoluminescence quantum yield (in CC1CCCCC1): 0.01 | photoluminescence quantum yield (in CC#N): 0.05 | photoluminescence quantum yield (in CO): 0.18 | photoluminescence quantum yield (in O): 0.22
Compound: COC(=O)C([NH3+])Cc1ccc2oc(-c3ccncc3)nc2c1 (stereo unspecified)

photoluminescence quantum yield (in C1CCCCC1): 0.22 | photoluminescence quantum yield (in C1CCOC1): 0.34 | photoluminescence quantum yield (in CC#N): 0.35
Compound: COc1ccc2nc3c(nc2c1)c(-c1ccccc1)nn3C

photoluminescence quantum yield (in ClC(Cl)Cl): 0.12
Compound: CC(C)(C)c1ccc(C2=c3sc(-c4ccc(C(C)(C)C)cc4)cc3=[N+]3C2=Nc2c(-c4ccc(C(C)(C)C)cc4)c4sc(-c5ccc(C(C)(C)C)cc5)cc4n2[B-]3(F)F)cc1

photoluminescence quantum yield (in C1CCCCC1): 0.11
Compound: N#Cc1cc(C#N)c(-c2cc(-n3c4ccccc4c4ccccc43)cc(-n3c4ccccc4c4ccccc43)c2)cc1-c1cc(-n2c3ccccc3c3ccccc32)cc(-n2c3ccccc3c3ccccc32)c1

photoluminescence quantum yield (in ClCCl): 0.01
Compound: Oc1ccc(Br)cc1-c1nc2c(c3c1-c1ccccc1CC3)-c1ccccc1CC2

photoluminescence quantum yield (in C1CCCCC1): 0.51 | photoluminescence quantum yield (in CC#N): 0.54
Compound: CC(C)c1ccc(/C=C/c2nc3ccc(N(C)C)cc3s2)cc1

photoluminescence quantum yield (in C1CCCCC1): 0.07 | photoluminescence quantum yield (in CC#N): 0.03 | photoluminescence quantum yield (in CO): 0.04 | photoluminescence quantum yield (in ClC(Cl)Cl): 0.02
Compound: CC1(C)CC(NCc2ccc3ccc4cccc5ccc2c3c45)CC(C)(C)N1[O]

photoluminescence quantum yield (in ClCCl): 0.128
Compound: Cc1ccc(-c2c3nc(c(-c4ccc(C)cc4)c4ccc([nH]4)c(-c4ccc(OC(=O)C(C)c5ccc(Oc6ccccc6)cc5)cc4)c4nc(c(-c5ccc(C)cc5)c5ccc2[nH]5)C=C4)C=C3)cc1 (stereo unspecified)

photoluminescence quantum yield (in CCO): 0.019
Compound: CCOC(=O)c1cc(C(=O)OCC)c2ccc(C)cc2n1

photoluminescence quantum yield (in C1CCCCC1): 0.02
Compound: CCc1c(C)c2n(c1C)[B-](F)(F)[N+]1=C(C=C3C=Cc4ccccc43)C=CC1=C2C

Further lines, the molecule ahead of its results:

Compound: CN(C)c1ccc(/C=C/C=C2\CC/C(=C\c3ccc(N(C)C)cc3)C2=O)cc1
photoluminescence quantum yield (in C1CCOC1): 0.16 | photoluminescence quantum yield (in CC#N): 0.29 | photoluminescence quantum yield (in CC(C)=O): 0.31 | photoluminescence quantum yield (in CC(C)O): 0.33 | photoluminescence quantum yield (in CCCCCC): 0.007 | photoluminescence quantum yield (in CCCCO): 0.36 | photoluminescence quantum yield (in CCCCOC(C)=O): 0.16 | photoluminescence quantum yield (in CCCO): 0.34 | photoluminescence quantum yield (in CCO): 0.23 | photoluminescence quantum yield (in CCOC(=O)c1ccccc1): 0.24 | photoluminescence quantum yield (in CCOC(C)=O): 0.2 | photoluminescence quantum yield (in CCOCC): 0.073 | photoluminescence quantum yield (in CN(C)C=O): 0.36 | photoluminescence quantum yield (in CO): 0.11 | photoluminescence quantum yield (in CS(C)=O): 0.4 | photoluminescence quantum yield (in Cc1ccccc1): 0.11 | photoluminescence quantum yield (in ClC(Cl)(Cl)Cl): 0.068 | photoluminescence quantum yield (in ClC(Cl)Cl): 0.27 | photoluminescence quantum yield (in ClCCl): 0.36 | photoluminescence quantum yield (in Clc1ccccc1Cl): 0.24 | photoluminescence quantum yield (in S=C=S): 0.13 | photoluminescence quantum yield (in c1ccccc1): 0.13 | photoluminescence quantum yield (in c1ccncc1): 0.38

Compound: O=CN1N=C(c2ccc(Br)cc2)C[C@@H]1c1ccccc1
photoluminescence quantum yield (in C1CCCCC1): 0.25 | photoluminescence quantum yield (in C1COCCO1): 0.25 | photoluminescence quantum yield (in CC#N): 0.14 | photoluminescence quantum yield (in CCO): 0.13 | photoluminescence quantum yield (in CCOC(C)=O): 0.18 | photoluminescence quantum yield (in CO): 0.05 | photoluminescence quantum yield (in CS(C)=O): 0.11 | photoluminescence quantum yield (in Cc1ccccc1): 0.01 | photoluminescence quantum yield (in ClC(Cl)(Cl)Cl): 0.02

Compound: CCn1c2ccccc2c2cc(/C=C/c3cc(/C=C/c4ccc5c(c4)c4ccccc4n5CC)ncn3)ccc21
photoluminescence quantum yield (in C1CCOC1): 0.25 | photoluminescence quantum yield (in CCOC(C)=O): 0.25 | photoluminescence quantum yield (in CN(C)C=O): 0.42 | photoluminescence quantum yield (in Cc1ccccc1): 0.19 | photoluminescence quantum yield (in ClCCl): 0.29

Compound: CCOC(=O)c1sc(-c2ccc(-c3cc(-c4cccs4)c(C(=O)OCC)s3)s2)cc1-c1cccs1
photoluminescence quantum yield (in ClCCl): 0.18

Compound: COc1ccc2oc(-c3cc4cc(OC)ccc4oc3=O)cc2c1
photoluminescence quantum yield (in CS(C)=O): 0.16

Compound: CCCCC(CC)CN1C(=O)c2cc(Oc3ccc(C(C)(C)C)cc3)c3c4c(Cl)cc5c6c(cc(Cl)c(c7c(Oc8ccc(C(C)(C)C)cc8)cc(c2c37)C1=O)c64)C(=O)N(c1c(C(C)C)cccc1C(C)C)C5=O (stereo unspecified)
photoluminescence quantum yield (in Cc1ccccc1): 0.72

Compound: Cc1ccc2c(c1)C(C)(C)c1cc(C)ccc1N2c1ccc2c(c1)C(C)(C)c1cc(N3c4ccc(C)cc4C(C)(C)c4cc(C)ccc43)ccc1S2(=O)=O
photoluminescence quantum yield (in O=P(c1ccccc1)(c1ccccc1)c1ccccc1Oc1ccccc1P(=O)(c1ccccc1)c1ccccc1): 0.73

Compound: CCCC1(CCC)c2cc(-c3ccc(-c4ccccc4)cc3)ccc2-c2ccc(-c3ccc4c(c3)C(CCC)(CCC)c3cc(-c5ccc(-c6ccccc6)cc5)ccc3-4)cc21
photoluminescence quantum yield (in Cc1ccccc1): 0.92

Compound: Cc1cn(CCCn2cc(C)c(=O)[nH]c2=O)c(=O)nc1-n1cncn1
photoluminescence quantum yield (in O): 0.016

Compound: CCOC(=O)/N=c1/oc2cc(OC)cc(OC)c2cc1C#N
photoluminescence quantum yield (in ClCCl): 0.059

Compound: COc1ccccc1C1=[N+]2C(=Cc3c4c(c(-c5ccccc5OC)n3[B-]2(F)F)C2CCC4CC2)C2=C1C1CCC2CC1
photoluminescence quantum yield (in ClCCl): 0.77

Compound: CCCCCCN(CCCCCC)c1ccc(C#Cc2c(F)c(F)c(F)c(F)c2F)cc1
photoluminescence quantum yield (in CO): 0.0014 | photoluminescence quantum yield (in ClCCl): 0.026

Compound: [O-][n+]1c(-c2ccc(Br)cc2)cc(N2CCOCC2)nc1/C=C/c1ccccc1
photoluminescence quantum yield (in ClCCl): 0.15

Compound: Cc1cccc(C)c1Nc1ccc(/C=C/c2ccccc2)cc1
photoluminescence quantum yield (in CC#N): 0.04 | photoluminescence quantum yield (in CCCCCC): 0.11

Compound: COC(=O)/C=C/C=C/C1=CC2=C(c3c(C)cc(C)cc3C)c3cc(/C=C/C=C/C(=O)OC)cn3[B-](F)(F)[N+]2=C1
photoluminescence quantum yield (in ClCCl): 0.054

Compound: Fc1ccc(C#Cc2nc(C#Cc3ccc(F)cc3)c(C#Cc3ccc(F)cc3)c(C#Cc3ccc(F)cc3)c2C#Cc2ccc(F)cc2)cc1
photoluminescence quantum yield (in ClCCl): 0.47

Compound: C(/C=C/c1cc2c3c(c1)CCCN3CCC2)=C\c1ccncc1
photoluminescence quantum yield (in C1COCCO1): 0.031 | photoluminescence quantum yield (in CC#N): 0.034 | photoluminescence quantum yield (in CCCCCCC): 0.033 | photoluminescence quantum yield (in CO): 0.016

Compound: CCC1=C(C)C2=C(c3cc(C(=O)Cl)cc(C(=O)Cl)c3)c3c(C)c(CC)c(C)n3[B-](F)(F)[N+]2=C1C
photoluminescence quantum yield (in C1CCOC1): 0.61 | photoluminescence quantum yield (in CC#N): 0.22 | photoluminescence quantum yield (in CN(C)C=O): 0.39 | photoluminescence quantum yield (in Cc1ccccc1): 0.57 | photoluminescence quantum yield (in ClC(Cl)Cl): 0.53

Compound: CCCCc1ccc(-n2c3c4ccc(C(F)(F)F)cc4nc(-c4ccc(C#N)cc4)c3c3c2c2c(-c4ccc(C#N)cc4)nc4cc(C(F)(F)F)ccc4c2n3-c2ccc(CCCC)cc2)cc1
photoluminescence quantum yield (in ClC(Cl)Cl): 0.14

Compound: O=c1[nH]c(=O)c2nc3ccccc3nc2[nH]1
photoluminescence quantum yield (in CC#N): 0.009

Compound: CC(C)(C)c1cc(-c2c3cccc4c5cccc6c(-c7cc(C(C)(C)C)cc(C(C)(C)C)c7)c7cccc8c9cccc2c9c(c34)c(c65)c78)cc(C(C)(C)C)c1
photoluminescence quantum yield (in Cc1ccccc1): 0.81

Compound: O=S(=O)([O-])c1ccccc1/C=C/c1ccc(-c2nnc(-c3ccc(/C=C/c4ccccc4S(=O)(=O)[O-])cc3)o2)cc1
photoluminescence quantum yield (in C1CCOC1): 0.22 | photoluminescence quantum yield (in CC(C)=O): 0.17 | photoluminescence quantum yield (in CN(C)C=O): 0.75

Compound: CCCCc1cc2cccc[n+]2[b-]2c(-c3cccc4[b-]3[n+]3ccccc3cc4CCCC)cccc21
photoluminescence quantum yield (in C1CCCCC1): 0.03

Compound: CCOC(=O)/C(C#N)=C\c1ccc2c(c1)c1ccccc1n2-c1ccc(OC)cc1
photoluminescence quantum yield (in C1CCOC1): 0.13 | photoluminescence quantum yield (in CC#N): 0.04 | photoluminescence quantum yield (in CC(C)=O): 0.05 | photoluminescence quantum yield (in CCOC(C)=O): 0.08 | photoluminescence quantum yield (in CO): 0.02 | photoluminescence quantum yield (in CS(C)=O): 0.03 | photoluminescence quantum yield (in Cc1ccccc1): 0.14 | photoluminescence quantum yield (in ClC(Cl)Cl): 0.09

Compound: COC(=O)C[C@H](Cc1c[nH]c2ccccc12)NC(=O)[C@H](CC(=O)N[C@@H](CC1=CCc2ccccc21)C(=O)OC)NC(=O)[C@H](Cc1c[nH]c2ccccc12)NC(=O)OC(C)(C)C
photoluminescence quantum yield (in CC#N): 0.26 | photoluminescence quantum yield (in CCOC(C)=O): 0.22 | photoluminescence quantum yield (in CO): 0.1

Compound: CN(C)c1ccc(/C=C/c2ccc([N+](=O)[O-])c(O)c2)cc1
photoluminescence quantum yield (in C1CCCCC1): 0.11 | photoluminescence quantum yield (in C1COCCO1): 0.02 | photoluminescence quantum yield (in CCCCCCC): 0.09 | photoluminescence quantum yield (in Cc1ccccc1): 0.09

Compound: CN(C)c1ccc(C2=Nc3scc(-c4ccccc4)[n+]3[B-](F)(F)O2)cc1
photoluminescence quantum yield (in C1CCOC1): 0.75 | photoluminescence quantum yield (in CC#N): 0.08 | photoluminescence quantum yield (in Cc1ccccc1): 0.94 | photoluminescence quantum yield (in ClCCl): 0.89

Compound: Cc1cc(C)c(B(c2c(C)cc(C)cc2C)c2c(C)cc(N3c4ccccc4Oc4ccccc43)cc2C)c(C)c1
photoluminescence quantum yield (in Cc1ccccc1): 0.44 | photoluminescence quantum yield (in c1ccc2c(c1)c1ccccc1n2-c1ccc(-c2ccc(-n3c4ccccc4c4ccccc43)cc2)cc1): 0.92

Compound: CCOC(=O)CN1C(=O)C2=C(c3ccc(C#N)cc3)N(CC(=O)OCC)C(=O)C2=C1c1ccccc1
photoluminescence quantum yield (in CC#N): 0.75 | photoluminescence quantum yield (in CS(C)=O): 0.51 | photoluminescence quantum yield (in Cc1ccccc1): 0.43

Compound: CCn1c2ccccc2c2cc(C#Cc3cc(C#Cc4ccc5c(c4)c4ccccc4n5CC)nc(C#N)n3)ccc21
photoluminescence quantum yield (in C1CCOC1): 0.66 | photoluminescence quantum yield (in CCOC(C)=O): 0.68 | photoluminescence quantum yield (in CN(C)C=O): 0.21 | photoluminescence quantum yield (in Cc1ccccc1): 0.81 | photoluminescence quantum yield (in ClCCl): 0.65

Compound: CCn1c2cc(OC)ccc2c2c3nsnc3c3c4ccc(OC)cc4n(CC)c3c21
photoluminescence quantum yield (in CN(C)C=O): 0.49 | photoluminescence quantum yield (in Cc1ccccc1): 0.41 | photoluminescence quantum yield (in ClCCl): 0.44

Compound: CC(C)[Si](C#Cc1c2nsnc2c(C#C[Si](C(C)C)(C(C)C)C(C)C)c2nc3c(ccc4ccccc43)nc12)(C(C)C)C(C)C
photoluminescence quantum yield (in CCCCCC): 0.42
